# Columns and labels:
# [1] = Fluorescence quantum yields in solvents, UV one-photon excitation; type: physicochemical; conditions: 20° C., 290-300 nm excitation
# Experimental: Absorption spectra were measured in either a Perkin Elmer Lambda 25 or 950 spectrophotometer. Fluorescence measurements were made with either a Spex Fluoromax or Varian Cary Eclipse spectrofluorimeter using the spectral correction curves supplied by the manufacturers. Fluorescence quantum yields with UV (one-photon) excitation were determined using either 2-aminopyridine (Φref 0.6 [7]) or 9-chloroanthracene (Φref 0.50 in dichloromethane, determined here relative to 9,10-diphenylanthracene in cyclohexane (Φref 0.97) and anthracene in ethanol (Φref 0.28 [8]) as standards. Fluorescence quantum yields were determined from the relative slopes of plots of integrated fluorescence intensity versus (1-10^−A) for samples having absorbance A≦0.1. The square of the refractive index (n^2) correction was applied when sample and reference compounds were in different solvents. Irradiation of the samples was minimized by the use of narrow excitation slits to reduce simultaneous photoisomerization.
# The fluorescence quantum yields for E-CA4F were generally somewhat higher than for E-CA4.
# [2] = Fluorescence lifetimes in solvents, two-photon excitation with TCSPC; type: physicochemical
# Experimental: Fluorescence lifetimes were determined using 2PE at 630 nm with the microscope TCSPC setup (overall time response of 25 ps fwhm) and produced the results shown in Table 1. […] Characterisation of the spectroscopic properties of these latter two compounds remains to be investigated further. […] In the very viscous environment provided by glycerol the lifetime increases further to 1180 ps. In the range of alkanols studied the lifetime is closely correlated with solvent viscosity as shown in the inset to FIG. 3. […] However it is clear that the measured lifetime has the potential to report on cellular environments in FLIM studies. For E-CA4F similar trends are observed, but the overall differences in both lifetimes and quantum yields over the range of solvents are rather less than for E-CA4. The fluorescence lifetimes of E-CA4F are confined to a narrower range having values ranging from 440 ps in methanol through 740 ps in hexane to 1070 ps in glycerol. The more pronounced solvent dependence for E-CA4 no doubt reflects the more polar nature of the molecule compared with E-CA4F. The relative polarities may be judged from the partition coefficients (P) calculated according to the method of Brown et al..
# [3] = Two-photon absorption cross section using reference fluorophore 9-chloroanthracene; type: physicochemical; conditions: at 620 nm, DCM
# Description: (§1) Cell images were overlaid using Adobe Photoshop CS3.
# Published cross sections for two photon absorption (σ2, the probability of an absorption process or photon interaction) typically show large variations depending on the method of measurement, using either the Z-scan method or a reference fluorophore, and the power range and pulse duration of the laser used for excitation. We have attempted to determine values of σ2 for E-CA4 and E-ACA4 using a reference fluorophore. 9-Chloroanthracene (9CIA) was selected as a standard fluorophore with an appropriate fluorescence spectrum and for which 2PE cross-sections are available. The values of σ2 at 620 nm for E-CA4 and E-CA4F in DCM were determined to be 2.1±0.5 and 2.75±0.6 GM units respectively. […] Values of σ2 at 620 nm for E-ACA and E-DMAC were both 5.7±1.2. These larger values may be consistent with some charge transfer character of the excitation of these compounds.
# [4] = test system: human umbilical vein endothelial cells (HUVECs); assay: Fluorescence lifetime imaging (FLIM) of uptake and intracellular concentration in HUVECs; type: cell-based
# Description: as §1
# Z-CA4 and analogues exert their anticancer activity by preventing the process of angiogenesis in which a growing tumour is supplied with new vasculature for the supply of nutrients via the bloodstream. We have therefore studied interactions between combretastatins and cultured HUVECs. […] Nevertheless it was possible to obtain images of cells after uptake upon E-combretastatin addition to the supporting medium at relatively low concentrations. […] In addition there are some punctate structures apparent in the images that appear to correlate with lipid droplets identified by Nile Red staining of the same cell. At 37° C. exact co-localization of the sequential images of combretastatin fluorescence and Nile Red labelled lipid droplets, obtained using the two different imaging systems attached to the microscope, is not possible because of the Brownian motion and the occasional rapid saltation of these structures that occur as a result of their transport upon the cellular microtubule network. The fluorescence lifetime distribution of intracellular E-CA4F observed in this cell simultaneously labelled with Nile Red peaks at ˜950 ps. […] This confirms that Nile Red and E-CA4F exist in the same space and are able to come close enough to allow FRET. The long lifetime of E-CA4F fluorescence in the HUVEC cell indicates a viscous environment for E-CA4F within the cell which is consistent with a lipidic location such as a membrane or lipid droplet. Since the fluorescence lifetimes and quantum yields of E-CA4F are directly related, it is possible to combine the FI and lifetime images to calculate the concentration distribution, using a series of standard solutions (DMSO was the chosen solvent with τ 810 ps). […] It is therefore clear that E-CA4F (and other compounds in FIG. 10) are taken up by their target endothelial cell and accumulated by up to 200 times the extracellular concentration of the compound. Similar images have been obtained that show corresponding uptake of E-CA4F within HUVECs from solutions containing as little as 1 μM E-CA4F.
# [5] = test system: HeLa cells; assay: Fluorescence lifetime imaging (FLIM) of uptake and intracellular concentration in HeLa cells
# Experimental: Both HeLa and Chinese hamster ovary (CHO) cells were obtained from the European Collection of Cell Cultures. HeLa cells were cultured in MEM medium (Gibco) containing 10% foetal calf serum, penicillin (100 units/mL), streptomycin (100 μg/mL) and glutamine (2 mM). CHO cells were cultured in DMEM (Gibco) with the same additions as for the HeLa cells. For microscopy the adherent cell cultures were grown in 35 mm diameter glass-bottom culture dishes with optical quality glass (MatTek Corporation) and incubated at 37° C. in a humidified atmosphere containing 5% CO2. Human umbilical vein endothelial cells (HUVECs) were obtained from TCS Cellworks. HUVECs were sub-cultured in basal medium (TCS Cellworks) supplemented with antibiotic supplement/amphotericin-B, following the detailed guidelines provided by TCS Cellworks.
# The fluorescence lifetime imaging system with multiphoton excitation employed lasers for multiphoton excitation consisting of a Ti:Sapphire laser, tuneable between 700 and 1000 nm and providing ca 180 fs pulses at 76 MHz, and an optical parametric oscillator (OPO) pumped by a second Ti:Sapphire laser source. Using the doubled idler output of the OPO, useful energies (>200 mW) could be obtained between 550 and 640 nm. Samples were excited on the stage of Nikon TE2000U inverted microscope using a water immersion ×60 objective of NA 1.2. Using the various microscope ports it was possible to record the fluorescence in a number of ways. The fluorescence signal at one port was relayed to a spectrometer (Acton 275) and CCD setup (Andor iDUS) so that emission spectra and intensities could be recorded. Alternatively the fluorescence signal could be routed via a second port to a time-correlated single photon counting (TCSPC) system (Becker and Hickl SPC-830) allowing fluorescence lifetime measurements and fluorescence lifetime imaging (FLIM), using Becker and Hickl software (SPCImage) for analysis. In FLIM mode the fluorescence was isolated by a suitable narrowband interference filter (400IU25 together with BG3 (Comar)). […] Two photon cross sections were determined using a reference fluorophore as a two photon standard as described by Mathai et al., employing published values of the two-photon cross section for 9-chloroanthracene.
# Images of intracellular distribution of E-combretastatins in cell monolayers were obtained using fluorescence lifetime imaging, in which the rastered excitation laser beam dwells on each pixel for a few milliseconds and at each position records a nanosecond fluorescence lifetime decay curve using the time-correlated single photon counting method. […]
# Quantification of fluorophore concentration from intensity measurements is often difficult.
# [6] = DCM, 20° C., two-photon excitation 620-630 nm, ne = non-exponential
# [7] = DMSO, 20° C., two-photon excitation 620-630 nm
# [8] = EtOH, 20° C., two-photon excitation 620-630 nm, ne = non-exponential
# [9] = Ethylene glycol, 20° C., two-photon excitation 620-630 nm, ne = non-exponential
# [10] = Hexane, 20° C., two-photon excitation 620-630 nm
# [11] = MeCN, 20° C., two-photon excitation 620-630 nm, ne = non-exponential
# [12] = MeOH, 20° C., two-photon excitation 620-630 nm, ne = non-exponential
# [13] = HUVEC, 5 μM in medium, 37° C., 60 min
SMILES,Fluorescence quantum yield φ ([1]; DCM),"Fluorescence lifetime τ [2, 6]","Fluorescence lifetime τ [2, 7] [ns]","Fluorescence lifetime τ [2, 8]","Fluorescence lifetime τ [2, 9]","Fluorescence lifetime τ [2, 10] [ns]","Fluorescence lifetime τ [2, 11]","Fluorescence lifetime τ [2, 12]",Two photon absorption cross section σ2 [3] [GM units],also measured
"COc1cc(/C=C/c2ccc(N(C)C)cc2)cc(OC)c1OC [E-DMAC, (E)-1-(3′,4′,5′-Trimethoxyphenyl)-2-(4″-dimethylamino-phenyl)ethene]",0.11,ne,0.36,ne,ne,0.41,ne,ne,5.7±1.2,–
"COc1ccc(/C=C/c2cc(OC)c(OC)c(OC)c2)cc1F [E-CA4F, (E)-1-(3′,4′,5′-trimethoxyphenyl)-2-(3″-fluoro-4″-methoxyphenyl)ethene]",0.23,0.61 ns,0.81,0.48 ns,0.76 ns,0.75,0.59 ns,0.44 ns,2.75±0.6,"Accumulation relative to the extracellular concentration ([4]; HUVEC endothelial cells): up to 200 times; Intracellular concentration in many parts of the cell [4, 13]: 500 µM; Intracellular concentration in the lipid droplets, peak [4, 13]: over 1 mM; Intracellular concentration as times that added to the surrounding medium ([4]; HUVEC, 5 μM in medium, many parts of the cell): 100 times; Intracellular distribution ([4]; HUVEC, 5 μM, 37° C., 60 min): taken up into the cytoplasmic region of the cell, but excluded from the cell nucleus; Fluorescence quantum yield φ ([1]; DMSO): 0.29; Fluorescence quantum yield φ ([1]; EtOH): 0.17; Fluorescence quantum yield φ ([1]; Ethylene glycol): 0.29; Fluorescence quantum yield φ ([1]; Glycerol): 0.42; Fluorescence quantum yield φ ([1]; Hexane): 0.31; Fluorescence quantum yield φ ([1]; MeCN): 0.2; Fluorescence quantum yield φ ([1]; MeOH): 0.15; Fluorescence lifetime τ ([2]; DMSO standard solutions): 810 ps; Fluorescence lifetime τ ([2]; Glycerol, 20° C., two-photon excitation 620-630 nm, ne = non-exponential): 1.07 ns; Fluorescence lifetime ([2]; glycerol): 1070 ps; Fluorescence lifetime ([2]; hexane): 740 ps; Fluorescence lifetime ([2]; methanol): 440 ps"
"COc1cc(C=Cc2ccc(C#N)cc2)cc(OC)c1OC [E-CNCA4, 4-[2-(3,4,5-trimethoxyphenyl)vinyl]benzonitrile]",–,–,0.71,–,–,–,–,–,–,Intracellular distribution [5]: accumulates mainly within the cell cytoplasm and is excluded from the cell nucleus

# Source: patent US20150359884A1, “MULTI-PHOTON ISOMERISATION OF COMBRETASTATINS AND THEIR USE IN THERAPY” (priority 2011, published 2015)
